Experimental data: PubChem BioAssay AID228 (DTP/NCI, 2004)
Several values for one entry are separate records, joined by “and”; a condition that tells them apart may be missing. Equal entries are not always repeated. Records with an inconclusive call do not appear. Starred links: 1 amine or outer side, 2 acyl side, 3 side chain; linkers in the order of their positions; H or OH if unused. Positions of bridges follow the written chain, without caps; N, C: chain ends. Non-standard residues stand in square brackets, D forms with d. Residues, ends and D or L forms follow the SMILES beside them. *: point of attachment. X1 = CC(C)C(C)C(C(=O)[*:2])N(C)[*:1]; Picolinoyl(3-OH) = O=C(c1ncccc1O)*; NMePhg = CN[CH](C(=O)O)c1ccccc1; Hyp = O=C(O)[CH]1C[CH](O)CN1; Sar = CNCC(=O)O

Tested on: BDF1 mice, Friend leukemia sc, tumor weight T/C
Assay: NCI In Vivo Anticancer Drug Screen. Data for tumor model Friend Virus Leukemia (Solid) (subcutaneous) in B6D2F1 (BDF1) mice
Conditions: endpoint: mean tumor weight, schedule: Q01DX011 (ip), higher = larger tumour
Procedure: The antitumor activity of compounds was measured in mice bearing transplantable tumors. Survival or tumor size were measured and the results are expressed as the measurement made in the treated group (T) divided by the measurement made in the vehicle treated control group (C). The tumor model used in this assay is Friend Virus Leukemia (Solid) (subcutaneous) in B6D2F1 (BDF1) mice

[1] = dose: 31.0 mg/kg/injection, vehicle: carboxymethylcellulose (CMC)
[2] = dose: 62.0 mg/kg/injection, vehicle: carboxymethylcellulose (CMC)
[3] = dose: 125.0 mg/kg/injection, vehicle: carboxymethylcellulose (CMC)
[4] = dose: 12.0 mg/kg/injection, vehicle: carboxymethylcellulose (CMC)
[5] = dose: 25.0 mg/kg/injection, vehicle: carboxymethylcellulose (CMC)
[6] = dose: 50.0 mg/kg/injection, vehicle: carboxymethylcellulose (CMC)
[7] = dose: 100.0 mg/kg/injection, vehicle: carboxymethylcellulose (CMC)
[8] = dose: 200.0 mg/kg/injection, vehicle: carboxymethylcellulose (CMC)
[9] = dose: 1.5 mg/kg/injection, vehicle: carboxymethylcellulose (CMC)

How did the T/C [1] turn out when Nc1ccc(OC(=O)Oc2ccc(N)cc2)cc1 was run?
The T/C was 105 % of control.

And the T/C [2]?
The T/C was 68 % of control.

What about the T/C [3] of the same compound?
Its T/C is 28 % of control.

Which results are given for CCCCCCCCCC(C)(O)C#CC(C)(O)CCCCCCCCC (centres undefined)?
T/C [4]: 81 % of control; T/C [5]: 82 % of control; T/C [6]: 58 % of control and 59 % of control; T/C [7]: 55 % of control; T/C [8]: 34 % of control

How did the T/C (dose: 0.4 mg/kg/injection, vehicle: carboxymethylcellulose (CMC)) turn out when CC(C)CCCCCCCCCCCCC(=O)NCC(=O)NC1C(O)C(O)C(Nc2ncnc3nc[nH]c23)OC1C(O)CO (centres undefined) was run?
Its T/C is 93 % of control.

What about the T/C (dose: 0.6 mg/kg/injection, vehicle: carboxymethylcellulose (CMC)) of the same compound?
Its T/C is 83 % of control.

And the T/C (dose: 0.9 mg/kg/injection, vehicle: carboxymethylcellulose (CMC))?
The T/C was 52 % of control.

What about the T/C (dose: 1.35 mg/kg/injection, vehicle: carboxymethylcellulose (CMC)) of the same compound?
The T/C was 50 % of control.

What about the T/C (dose: 1.35 mg/kg/injection, vehicle: saline) of the same compound?
The T/C was 37 % of control.

CC1NC(=O)NC1CCCCCC(=O)O (centres undefined) was tested. Which T/C (dose: 89.0 mg/kg/injection, vehicle: carboxymethylcellulose (CMC)) did it give?
Its T/C is 169 % of control.

And the T/C (dose: 178.0 mg/kg/injection, vehicle: carboxymethylcellulose (CMC))?
The T/C was 119 % of control.

With CCSCCC(N)C(=O)O (centres undefined) as the compound, how does the T/C (dose: 10.2 mg/kg/injection, vehicle: carboxymethylcellulose (CMC)) read?
Its T/C is 114 % of control.

What about the T/C (dose: 20.5 mg/kg/injection, vehicle: carboxymethylcellulose (CMC)) of the same compound?
Its T/C is 80 % of control.

And the T/C (dose: 41.0 mg/kg/injection, vehicle: carboxymethylcellulose (CMC))?
The T/C was 109 % of control.

And the T/C (dose: 82.0 mg/kg/injection, vehicle: carboxymethylcellulose (CMC))?
The T/C was 111 % of control.

Which results are given for N=[N+]=CC(=O)OCC(N)C(=O)O (centres undefined)?
T/C (dose: 0.38 mg/kg/injection, vehicle: carboxymethylcellulose (CMC)): 49 % of control; T/C (dose: 0.75 mg/kg/injection, vehicle: carboxymethylcellulose (CMC)): 37 % of control; T/C [9]: 39 % of control and 44 % of control; T/C (dose: 1.8 mg/kg/injection, vehicle: carboxymethylcellulose (CMC)): 108 % of control; T/C (dose: 9.0 mg/kg/injection, vehicle: carboxymethylcellulose (CMC)): 33 % of control; T/C [4]: 22 % of control and 44 % of control; T/C (dose: 15.0 mg/kg/injection, vehicle: carboxymethylcellulose (CMC)): 29 % of control

Which T/C (dose: 37.8 mg/kg/injection, vehicle: carboxymethylcellulose (CMC)) does the source give for Nc1ccc(C(=O)O)c(O)c1 here?
Its T/C is 82 % of control.

What about the T/C (dose: 75.7 mg/kg/injection, vehicle: carboxymethylcellulose (CMC)) of the same compound?
The T/C was 101 % of control.

What about the T/C (dose: 151.5 mg/kg/injection, vehicle: carboxymethylcellulose (CMC)) of the same compound?
Its T/C is 113 % of control.

And the T/C (dose: 303.0 mg/kg/injection, vehicle: carboxymethylcellulose (CMC))?
Its T/C is 95 % of control.

With CC1(C)N=C(N)N=C(N)N1c1cccc(Cl)c1 as the compound, how does the T/C (dose: 2.3 mg/kg/injection, vehicle: carboxymethylcellulose (CMC)) read?
Its T/C is 91 % of control.

What about the T/C (dose: 4.6 mg/kg/injection, vehicle: carboxymethylcellulose (CMC)) of the same compound?
Its T/C is 104 % of control.

And the T/C (dose: 9.2 mg/kg/injection, vehicle: carboxymethylcellulose (CMC))?
Its T/C is 108 % of control.

For NNc1nncc2ccccc12, which T/C (dose: 37.5 mg/kg/injection, vehicle: carboxymethylcellulose (CMC)) is on record?
The T/C was 108 % of control.

And the T/C (dose: 75.0 mg/kg/injection, vehicle: carboxymethylcellulose (CMC))?
The T/C was 66 % of control.

For CC(C)CC1NC(=O)C(NC(=O)c2ncccc2O)C(C)OC(=O)C(c2ccccc2)N(C)C(=O)C(C)NC(=O)C(C(C)C(C)C)N(C)C(=O)CN(C)C(=O)C2CC(O)CN2C1=O (centres undefined) ({Picolinoyl(3-OH)}-TL[Hyp][Sar][X1]A[NMePhg]; ester 1-C; configuration not given here), which T/C [5] is on record?
Its T/C is 57 % of control.

What about the T/C [6] of the same compound?
Its T/C is 49 % of control.

What about the T/C [7] of the same compound?
The T/C was 64 % of control.

What about the T/C [8] of the same compound?
The T/C was 39 % of control.

Which T/C (dose: 50.0 mg/kg/injection, vehicle: saline) does the source give for COc1ccc2c(c1OC)C(=O)O[C@@H]2[C@H]1c2c(cc3c(c2OC)OCO3)CCN1C here?
Its T/C is 110 % of control.

What about the T/C (dose: 100.0 mg/kg/injection, vehicle: saline) of the same compound?
Its T/C is 99 % of control.

What about the T/C (dose: 200.0 mg/kg/injection, vehicle: saline) of the same compound?
The T/C was 85 % of control.

Which results are given for CN(C)c1ccc(C(N)=O)cn1?
T/C (dose: 1.0 mg/kg/injection, vehicle: carboxymethylcellulose (CMC)): 78 % of control; T/C (dose: 2.0 mg/kg/injection, vehicle: carboxymethylcellulose (CMC)): 88 % of control and 100 % of control

Which T/C [9] does the source give for CCN(CC)c1ccc(/C=C/c2ccnc3ccccc23)cc1 here?
The T/C was 202 % of control.

And the T/C (dose: 3.0 mg/kg/injection, vehicle: carboxymethylcellulose (CMC))?
The T/C was 280 % of control.

And the T/C [4]?
Its T/C is 106 % of control.

With OCC1OC(n2cnc3c(Cl)ncnc32)C(O)C1O (centres undefined) as the compound, how does the T/C [2] read?
Its T/C is 93 % of control.

What about the T/C [3] of the same compound?
Its T/C is 105 % of control.

What about the T/C (dose: 250.0 mg/kg/injection, vehicle: carboxymethylcellulose (CMC)) of the same compound?
Its T/C is 109 % of control.

And the T/C (dose: 500.0 mg/kg/injection, vehicle: carboxymethylcellulose (CMC))?
The T/C was 115 % of control.

Which results are given for C[N+](C)(C)c1ncnc2nc[nH]c12?
T/C [1]: 106 % of control; T/C [2]: 43 % of control; T/C [3]: 47 % of control

For CC1CCOS(=O)O1 (centres undefined), which T/C (dose: 10.0 mg/kg/injection, vehicle: carboxymethylcellulose (CMC)) is on record?
Its T/C is 123 % of control.

And the T/C (dose: 20.0 mg/kg/injection, vehicle: carboxymethylcellulose (CMC))?
The T/C was 84 % of control.

And the T/C (dose: 40.0 mg/kg/injection, vehicle: carboxymethylcellulose (CMC))?
The T/C was 72 % of control.

And the T/C (dose: 80.0 mg/kg/injection, vehicle: carboxymethylcellulose (CMC))?
Its T/C is 32 % of control.

What does the source list for Cc1ccc(N=NN(C)C)cc1?
T/C [5]: 110 % of control; T/C [6]: 90 % of control; T/C [7]: 28 % of control

Which T/C [5] does the source give for CCN(CC)CC(C)Nc1ccc(C)c2sc3ccccc3c(=O)c12 (centres undefined) here?
Its T/C is 103 % of control.

And the T/C [6]?
Its T/C is 60 % of control.

For CCC1/C=C/C=C/CC(C)C(O)C(C)(O)C(=O)C(C)C(O)C(C)C(=O)C(C)C(O)C(C)/C=C/C(=O)OC2C(C)C(CC1)OC1(OC(CC(C)O)C(C)CC1=O)C2C (centres undefined) (tested in a mixture with another compound), which T/C (dose: 1.56 mg/kg/injection, vehicle: carboxymethylcellulose (CMC)) is on record?
Its T/C is 54 % of control.

What about the T/C (dose: 3.12 mg/kg/injection, vehicle: carboxymethylcellulose (CMC)) of the same compound?
Its T/C is 64 % of control.

And the T/C (dose: 6.25 mg/kg/injection, vehicle: carboxymethylcellulose (CMC))?
Its T/C is 46 % of control.

Which T/C (dose: 250.0 mg/kg/injection, vehicle: saline) does the source give for O=C(NO)c1ccncc1 here?
Its T/C is 79 % of control.

And the T/C (dose: 500.0 mg/kg/injection, vehicle: saline)?
The T/C was 78 % of control and 86 % of control.

What about the T/C (dose: 750.0 mg/kg/injection, vehicle: saline) of the same compound?
Its T/C is 42 % of control and 48 % of control.

And the T/C (dose: 950.0 mg/kg/injection, vehicle: saline)?
Its T/C is 7 % of control.

Which T/C (dose: 50.0 mg/kg/injection, vehicle: alkali diluted with saline) does the source give for O=C(O)c1cc(O)c(O)c(O)c1 here?
The T/C was 85 % of control.

And the T/C (dose: 100.0 mg/kg/injection, vehicle: alkali diluted with saline)?
The T/C was 79 % of control.

What about the T/C (dose: 200.0 mg/kg/injection, vehicle: alkali diluted with saline) of the same compound?
The T/C was 84 % of control.

What about the T/C (dose: 400.0 mg/kg/injection, vehicle: alkali diluted with saline) of the same compound?
Its T/C is 95 % of control.
